Experimental data: article PMC6225302, “Depsidone Derivatives and a Cyclopeptide Produced by Marine Fungus Aspergillus unguis under Chemical Induction and by Its Plasma Induced Mutant” (Molecules : A Journal of Synthetic Chemistry and Natural …, 2018)
Values after ≈ are worked out from the molar mass of the structure shown. Values joined by “and” are separate entries in the source; they are usually repeats but may differ in a detail not shown here. Equal entries are not always repeated. Where two headings read alike, the source gives them in different places. Where a SMILES comes first, the peptide text is derived from it. [ ]: non-standard residue; d: D form. GABA = NCCCC(=O)O

Experiments:
[1] = tested on: Candida albicans (ATCC 10231); experiment: Antimicrobial paper disc diffusion method; assay type: cell-based; conditions: C. albicans, 10 μg per disc, paper disc diameter 6.0 mm, mean ± SD of three replicates; for zone of inhibition at 10 µg/disc: Candida albicans, ATCC10231
Description: (§1) Preliminary antimicrobial tests for compounds 1‒10 were carried out against pathogenetic strains, including Pseudomonas aeruginosa (ATCC 9027), methicillin-resistant Staphylococcus aureus (A7983, clinical isolate donated by Zhijun Yu in Dalian Friendship Hospital, Dalian, China), Vibrio parahemolyticus (ZouB, aquatic pathogen donated by Chongqing Wen in College of Fishery, Guangdong Ocean University, Zhanjiang, China), and Candida albicans (ATCC 10231) using the disc diffusion method. Muller Hinton agar (MHA) and Sabouraud agar (SA) were used for antibacterial and antifungal tests, respectively. For each sample, 10 μg was added onto paper disc (diameter of 6 mm) for tests. The minimum inhibition concentrations (MICs) of the compounds were tested using microdilution methods. Ampicillin and ketoconazole were taken as positive controls for antibacterial and antifungal tests, respectively. Solvents (MeOH and DMSO) were used as blank controls.

[2] = tested on: Pseudomonas aeruginosa (ATCC 9027); experiment: Antimicrobial paper disc diffusion method; assay type: cell-based; conditions: P. aeruginosa, 10 μg per disc, paper disc diameter 6.0 mm, mean ± SD of three replicates; for zone of inhibition at 10 µg/disc: Pseudomonas aeruginosa, ATCC9027
Description: as §1

[3] = tested on: Vibrio parahemolyticus (ZouB); experiment: Antimicrobial paper disc diffusion method; assay type: cell-based; conditions: V. parahemolyticus, incomplete inhibition, 10 μg per disc, paper disc diameter 6.0 mm, mean ± SD of three replicates; for zone of inhibition at 10 µg/disc: Vibrio
Description: as §1

[4] = tested on: methicillin-resistant Staphylococcus aureus (A7983, clinical isolate); experiment: Antimicrobial paper disc diffusion method; assay type: cell-based; conditions: MRSA; for zone of inhibition at 10 µg/disc: Staphylococcus aureus; for Zone of Inhibition: 10 μg per disc, paper disc diameter 6.0 mm, mean ± SD of three replicates
Description: as §1

[5] = tested on: Candida albicans (ATCC 10231); experiment: Antimicrobial microdilution method (MIC); assay type: cell-based; conditions: ATCC10231, C. albicans
Description: as §1

[6] = tested on: Pseudomonas aeruginosa (ATCC 9027); experiment: Antimicrobial microdilution method (MIC); assay type: cell-based; conditions: ATCC9027, P. aeruginosa
Description: as §1

[7] = tested on: methicillin-resistant Staphylococcus aureus (A7983, clinical isolate); experiment: Antimicrobial microdilution method (MIC); assay type: cell-based; conditions: MRSA
Description: as §1

[8] = tested on: Vibrio parahemolyticus (ZouB); experiment: microbe, parasite or virus in culture; assay type: cell-based
Description: as §1

[9] = molecular target: T1, Acetylcholinesterase (AChE, from electric eels) (Electrophorus electricus, UniProt O42275); experiment: AChE inhibition assay (modified Ellman's method); assay type: biochemical; conditions: AChE Inhibitory Activity (IC50), 0.2 U/mL, 37 °C
T1 construct: purchased Sigma-Aldrich
T1 sequence (O42275 24-633): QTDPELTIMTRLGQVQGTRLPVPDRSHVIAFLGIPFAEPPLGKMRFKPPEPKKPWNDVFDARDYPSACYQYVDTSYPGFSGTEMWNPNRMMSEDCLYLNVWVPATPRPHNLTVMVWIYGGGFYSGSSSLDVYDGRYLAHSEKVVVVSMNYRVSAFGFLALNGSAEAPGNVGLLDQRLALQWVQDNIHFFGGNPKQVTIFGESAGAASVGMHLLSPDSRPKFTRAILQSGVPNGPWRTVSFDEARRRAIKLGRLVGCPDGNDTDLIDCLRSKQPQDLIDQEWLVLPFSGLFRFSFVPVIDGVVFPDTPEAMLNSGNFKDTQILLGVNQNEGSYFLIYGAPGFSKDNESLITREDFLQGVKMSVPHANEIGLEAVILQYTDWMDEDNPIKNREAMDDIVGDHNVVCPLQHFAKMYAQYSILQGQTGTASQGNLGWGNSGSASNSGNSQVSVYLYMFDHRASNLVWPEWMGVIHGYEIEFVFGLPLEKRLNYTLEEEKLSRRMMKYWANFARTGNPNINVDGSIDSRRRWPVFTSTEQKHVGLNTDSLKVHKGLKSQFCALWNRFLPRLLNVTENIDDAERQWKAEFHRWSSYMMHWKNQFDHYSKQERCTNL
Description: Acetylcholinesterase (AChE, from electric eels), acetythiocholine iodide (ATCh), 5,5-dithiobis-(2-nitrobenzoic acid) (DTNB), and bovine serum albumin (BSA, A1933) were purchased from Sigma-Aldrich. 100 mM PBS (pH = 7.4) was prepared with K2HPO4 and KH2PO4. In vitro AChE inhibitory activity was measured in 96-well plates using modified Ellman’s methods. […] Each well contained 1 μL of prepared sample, 49 μL of PBS, 10 μL of enzyme with a final concentration of 0.2 U/mL in BSA ([…] in PBS), and 20 μL of DTNB (5 mM in PBS). Then, the plates were preincubated at 37 °C for 10 min. Afterwards, 20 μL of ATCh (10 mM in PBS) was added into the well. After incubation at 37 °C for 20 min, the 96-well plates were read at 405 nm on the microplate reader, and the inhibition ratios to AChE were calculated using the following equation, where Asample blank stands for the absorbance of a well without enzyme, Asample stands for the absorbance of the treatment, Acontorl stands for the absorbance of the well without the sample, and Ablank stands for the absorbance of the well without the sample and enzyme. Donepezil was taken as a positive control. Inhibition of AChE (%)=[(Acontrol−Ablank)−(Asample−Asample blank)]/(Acontrol−Ablank)×100%
The inhibition rates and concentration logarithm (lnC) values were imported into the Origin 8.0 software (OriginLab Co., Ltd., Northampton, MA, USA). The cubic polynomial regression equation was used to calculate ln(IC50). Then, IC50 was calculated using Microsoft Excel.

[10] = DPPH free radical scavenging assay; conditions: 0.16 mM DPPH, 30 min in darkness at room temperature
Description: The free radical scavenging potentials of compounds 1‒10 were evaluated in 96-well plates using the DPPH free radical scavenging assay described by Sharma and Bhat. A total of 100 μL of the reaction mixture was composed of 50 μL of 0.16 mM DPPH (Sigma-Aldrich, St. Louis, MO, USA) in methanol and 50 μL of the test compound (in DMSO) with different concentrations (Asample). The reaction mixture was incubated for 30 min in darkness at room temperature. Meanwhile, 50 μL of 0.16 mM DPPH with 50 μL of DMSO was used as control (Acontrol), 50 μL of methanol and 50 μL of different concentrations of the test compound in DMSO were used as the sample blanks (Asample blank), 50 μL methanol with 50 μL DMSO was used as the blank (Ablank), while vitamin C was taken as a positive control. The absorbance was measured at 517 nm on the microplate reader. Scavenging capacity (%)=[(Acontrol−Ablank)−(Asample−Asample blank)]/(Acontrol−Ablank)×100%
The EC50 value is the concentration required to scavenge 50% of DPPH radicals. Likewise, the EC50 was calculated using Origin 8.0 plotting and cubic polynomial regression.

[11] = Brine shrimp larva lethality test; assay type: in vivo, Artemia salina; conditions: 24 h at 28 °C, read-out: Larvicidal Activity (LC50)
Description: Compounds 1‒10 were evaluated for larvicidality using the brine shrimp (Artemia salina) larva lethality test. 0.15 g of frozen eggs of brine shrimp larva (purchased from Aijia Aquarium Co., Zhanjiang, China) were activated at room temperature for 12 h. After activation, eggs were added to 1 L of artificial seawater (3% sea salt), ventilated with air for 420 mL/min, then kept at a brightness at 1000 lux and incubated at 28 °C for 24 h. After incubation, the larvae were induced to the top of the separating funnel by phototaxis, and the dead ones on bottom were discharged. Then, in each well of the 96-well plate, 1 μL of test compounds (in DMSO) with different concentrations and 99 μL of seawater containing 20‒30 live larvae were added. After incubation under light at 28 °C for 24 h, recorded the numbers of dead larvae. Finally, 10 μL of the Lucus reagent were added into each well and the total number of brine shrimp larva in the well were counted. DMSO and Hg(NO3)2 were used as blank control and positive control, respectively. Lethality rate (%)=(lethality of treatment−lethality of blank control)/survival rate of blank control×100%
The brine shrimp larva LC50 value is the concentration required to kill 50% of the larvae. Likewise, the LC50 was calculated using Origin 8.0 plotting and cubic polynomial regression.

[12] = Artemia salina (brine shrimp) larvae, live brine shrimp larvae in 96-well plate, other: immersion in seawater containing the compound

| SMILES | zone of inhibition at 10 µg/disc [1] | zone of inhibition at 10 µg/disc [2] | zone of inhibition at 10 µg/disc [3] | zone of inhibition at 10 µg/disc [4] | MIC [5] | MIC [6] | MIC [7] | MIC ([8]; Vibrio) | IC50 [9] | EC50 [10] | LC50 at 24 h [11, 12] | Zone of Inhibition [2] | Zone of Inhibition [4] | MIC ([8]; V. parahemolyticus, microdilution method, read-out: MIC) | LC50 at 24 h ([11]; brine shrimp (Artemia salina), in vivo, brine shrimp larvae) | Zone of Inhibition [1] | MIC ([8]; Vibrio, V. parahemolyticus, microdilution method, read-out: MIC) | Zone of Inhibition [3] | LC50 at 24 h ([11]; Artemia salina (brine shrimp) larvae, in vivo, other: compound added to the seawater holding the larvae) |
| --- | --- | --- | --- | --- | --- | --- | --- | --- | --- | --- | --- | --- | --- | --- | --- | --- | --- | --- | --- |
| CC=C(C)c1c(Cl)c(O)c(C)c2c1Oc1cc(O)c(Cl)c(C)c1C(=O)O2 [Compound 7, aspergillusidone C] | 7.9 ± 0.2 mm | 10 mm | 9.7 ± 0.6 mm | 13.7 ± 2.3 mm | > 102 µM | 25.6 µM (≈ 10.1 µg/mL) | > 102 µM | > 102 µM | > 102 µM | > 102 µM | 72 µM |  |  |  |  |  |  |  |  |
| CC=C(C)c1c2c(c(C)c(O)c1C(=O)O)OC(=O)c1c(C)cc(O)cc1O2 [Compound 9, aspergillusidone A] | 15.5 ± 2.2 mm | 16 mm | 8.3 ± 0.6 mm | 17.7 ± 0.6 mm | 6.4 µM (≈ 2.37 µg/mL) | 102 µM (≈ 37.9 µg/mL) | 12.8 µM (≈ 4.74 µg/mL) | > 102 µM | 56.7 µM and 56.8 µM | > 102 µM | 51.2 µM |  |  |  |  |  |  |  |  |
| C/C=C(\C)c1cc(OC(=O)c2c(C)cc(O)cc2O)c(C)c(O)c1C(=O)O [Compound 1, (E)-6-(but-2-en-2-yl)-4-((2,4-dihydroxy-6-methylbenzoyl)oxy)-2-hydroxy-3-methylbenzoic acid] | 8.3 ± 0.6 mm | 7.7 ± 0.6 mm | 9.3 ± 0.6 mm | 12 ± 1 mm | 12.8 µM (≈ 4.77 µg/mL) | 102 µM (≈ 38.1 µg/mL) | 51.2 µM (≈ 19.1 µg/mL) | > 102 µM | > 102 µM | > 102 µM | > 102 µM |  |  |  |  |  |  |  |  |
| C/C=C(\C)c1cc(O)c(C)c(OC(=O)c2c(/C(C)=C/C)cc(O)c(C)c2O)c1 [Compound 2, agonodepside A] | 6 ± 0.5 mm |  | 8 mm |  |  |  |  | > 102 µM | > 102 µM | > 102 µM | > 102 µM | - | - |  |  |  |  |  |  |
| O=C1O[C@H]([C@@H](O)CO)C(O)=C1O [Vitamin C, vitamin C, reference compound] |  |  |  |  |  |  |  |  |  | 31.8 µM |  |  |  |  |  |  |  |  |  |
| CC(C)[C@H]1NC(=O)[C@H](Cc2ccccc2)NC(=O)[C@@H](C(C)C)NC(=O)[C@@H](C)NC(=O)CCCNC(=O)[C@@H](Cc2c[nH]c3ccccc23)NC(=O)[C@@H](C)NC1=O [Compound 10, unguisin A] (cyclo(F[dV][dA][dW][GABA][dA][dV])) |  |  |  |  |  |  |  |  | > 102 µM |  |  |  |  | >102.4 µM | > 102 µM |  |  |  |  |
| C/C=C(\C)c1cc(O)c(C)c2c1Oc1cc(O)cc(C)c1C(=O)O2 [Compound 6, unguinol] | 8 ± 0.5 mm | 8.7 ± 2.1 mm | 7 mm | 7 mm | > 102 µM | 102 µM (≈ 33.4 µg/mL) | > 102 µM | > 102 µM | > 102 µM | > 102 µM | > 102 µM |  |  |  |  |  |  |  |  |
| CC1(C)S[C@@H]2[C@H](NC(=O)[C@H](N)c3ccccc3)C(=O)N2[C@H]1C(=O)O [Ampicillin, reference compound] |  | 12 ± 1.4 mm | 9 mm | 14 mm |  | 1.6 µM (≈ 0.559 µg/mL) | 6.4 µM (≈ 2.24 µg/mL) |  |  |  |  |  |  |  |  | - | 102 µM (≈ 35.8 µg/mL) |  |  |
| CC=C(C)c1c(Cl)c(OC)c(C)c2c1Oc1c(Cl)c(O)c(Cl)c(C)c1C(=O)O2 [Compound 4, nidulin] | 9 mm | 9.5 ± 0.6 mm |  | 9 mm | > 102 µM | > 102 µM | 102 µM (≈ 45.4 µg/mL) |  | > 102 µM | > 102 µM | 4.5 µM |  |  |  |  |  |  | - |  |
| CC=C(C)c1c(Cl)c(O)c(C)c2c1Oc1c(Cl)c(O)c(Cl)c(C)c1C(=O)O2 [Compound 3, nornidulin] | 12.1 ± 0.2 mm | 12.2 ± 0.3 mm |  |  | > 102 µM | > 102 µM |  |  | > 102 µM | > 102 µM |  |  | - |  |  |  |  | - | 12.8 µM |
| CC(=O)N1CCN(c2ccc(OCC3COC(Cn4ccnc4)(c4ccc(Cl)cc4Cl)O3)cc2)CC1 (stereo not shown) [Ketoconazole, reference compound] | 22 mm |  |  |  | 1.9 µM (≈ 1.01 µg/mL) |  |  |  |  |  |  | - | - |  |  |  |  | - |  |
| CC=C(C)c1cc(O)c(C)c2c1Oc1cc(O)c(Cl)c(C)c1C(=O)O2 [Compound 8, 2-chlorounguinol] | 10 mm | 11.1 ± 0.2 mm | 8.3 ± 0.6 mm | 17 mm | > 102 µM | 51.2 µM (≈ 18.5 µg/mL) | 25.6 µM (≈ 9.24 µg/mL) | > 102 µM | > 102 µM | > 102 µM | 75.9 µM |  |  |  |  |  |  |  |  |
| CC=C(C)c1c(Br)c(O)c(C)c2c1Oc1c(Br)c(O)cc(C)c1C(=O)O2 [Compound 5, aspergillusidone F] | 7.5 ± 0.6 mm | 11.9 ± 0.2 mm | 6.3 ± 0.6 mm | 14.5 ± 0.6 mm | > 102 µM | 6.4 µM (≈ 3.1 µg/mL) | 25.6 µM (≈ 12.4 µg/mL) | > 102 µM | > 102 µM | > 102 µM | 12.8 µM |  |  |  |  |  |  |  |  |
